Assay results from PubChem BioAssay AID330 (DTP/NCI, 2004).
Where “and” joins values, the source holds several entries; their conditions need not be identical. Equal values may be shown once. Inconclusive results and toxic doses are left out. Peptide text beside a SMILES is read from it.

System: P388 leukemia ip, CD2F1 mice, survival T/C
Assay: NCI In Vivo Anticancer Drug Screen. Data for tumor model P388 Leukemia (intraperitoneal) in CD2F1 (CDF1) mice
Conditions: endpoint: median survival time, higher = longer survival
In short: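 Mice carrying the transplanted tumor received test compound or vehicle. Survival was recorded in each group, and the value is the treated-group measurement divided by that of the vehicle-treated control group.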

[1] = dose: 60.0 mg/kg/injection, schedule: Q01DX005 (ip), vehicle: saline
[2] = dose: 120.0 mg/kg/injection, schedule: Q01DX005 (ip), vehicle: saline
[3] = dose: 240.0 mg/kg/injection, schedule: Q01DX005 (ip), vehicle: saline
[4] = dose: 100.0 mg/kg/injection, schedule: Q04DX003 (ip), vehicle: Klucel (hydroxypropylcellulose) (HPC)
[5] = dose: 200.0 mg/kg/injection, schedule: Q04DX003 (ip), vehicle: Klucel (hydroxypropylcellulose) (HPC)
[6] = dose: 50.0 mg/kg/injection, schedule: Q01DX009 (ip), vehicle: saline with Tween-80
[7] = dose: 100.0 mg/kg/injection, schedule: Q01DX009 (ip), vehicle: saline with Tween-80
[8] = dose: 200.0 mg/kg/injection, schedule: Q01DX009 (ip), vehicle: saline with Tween-80
[9] = dose: 60.0 mg/kg/injection, schedule: Q01DX005 (ip), vehicle: saline with Tween-80
[10] = dose: 120.0 mg/kg/injection, schedule: Q01DX005 (ip), vehicle: saline with Tween-80
[11] = dose: 240.0 mg/kg/injection, schedule: Q01DX005 (ip), vehicle: saline with Tween-80
[12] = dose: 50.0 mg/kg/injection, schedule: Q01DX005 (ip), vehicle: saline
[13] = dose: 100.0 mg/kg/injection, schedule: Q01DX005 (ip), vehicle: saline
[14] = dose: 200.0 mg/kg/injection, schedule: Q01DX005 (ip), vehicle: saline
[15] = dose: 25.0 mg/kg/injection, schedule: Q01DX009 (ip), vehicle: saline
[16] = dose: 50.0 mg/kg/injection, schedule: Q01DX005 (ip), vehicle: saline with Tween-80
[17] = dose: 100.0 mg/kg/injection, schedule: Q01DX005 (ip), vehicle: saline with Tween-80
[18] = dose: 200.0 mg/kg/injection, schedule: Q01DX005 (ip), vehicle: saline with Tween-80
[19] = dose: 50.0 mg/kg/injection, schedule: Q01DX009 (ip), vehicle: saline
[20] = dose: 100.0 mg/kg/injection, schedule: Q01DX009 (ip), vehicle: saline
[21] = dose: 200.0 mg/kg/injection, schedule: Q01DX009 (ip), vehicle: saline
[22] = dose: 50.0 mg/kg/injection, schedule: Q01DX009 (ip), vehicle: Klucel (hydroxypropylcellulose) (HPC)
[23] = dose: 100.0 mg/kg/injection, schedule: Q01DX009 (ip), vehicle: Klucel (hydroxypropylcellulose) (HPC)
[24] = dose: 200.0 mg/kg/injection, schedule: Q01DX009 (ip), vehicle: Klucel (hydroxypropylcellulose) (HPC)

CC(C)CC(N)C(=O)NC(Cc1cnc[nH]1)C(=O)O (stereo not drawn) (H-Leu-His-OH; configuration not given here) was tested, and the T/C [1] was 97 % of control, the T/C [2] was 106 % of control and the T/C [3] was 104 % of control.
O=C1C=C[C@]2(C(=O)O)[C@@H]3C=C[C@@H](CC3)[C@H]12 was tested, and the T/C [4] was 96 % of control, the T/C [5] was 100 % of control and the T/C (dose: 400.0 mg/kg/injection, schedule: Q04DX003 (ip), vehicle: Klucel (hydroxypropylcellulose) (HPC)) was 90 % of control.
In the case of CCOP(=O)(CC(=O)NCc1cc(C(C)(C)C)c(O)c(C(C)(C)C)c1)OCC, the T/C [6] is reported as 100 % of control, the T/C [7] is reported as 93 % of control and the T/C [8] is reported as 96 % of control.
For NC(=O)c1ccccc1Sc1ccccc1C(N)=O, the T/C (dose: 100.0 mg/kg/injection, schedule: Q01DX001 (ip), vehicle: saline with Tween-80) was 100 % of control, the T/C (dose: 200.0 mg/kg/injection, schedule: Q01DX001 (ip), vehicle: saline with Tween-80) was 100 % of control and the T/C (dose: 400.0 mg/kg/injection, schedule: Q01DX001 (ip), vehicle: saline with Tween-80) was 100 % of control.
With Oc1c(Cl)c2nc3ccccc3nc2c2ccccc12 the T/C (dose: 15.0 mg/kg/injection, schedule: Q01DX005 (ip), vehicle: saline with Tween-80) was 100 % of control, the T/C (dose: 30.0 mg/kg/injection, schedule: Q01DX005 (ip), vehicle: saline with Tween-80) was 102 % of control and the T/C [9] was 88 % of control and 98 % of control.
In the case of CC1Cc2nc3ccccc3nc2C1, the T/C [9] is reported as 99 % of control, the T/C [10] is reported as 99 % of control and the T/C [11] is reported as 104 % of control.
With CN1C2CCC1CC(=NOS(=O)(=O)CC13CCC(CC1=O)C3)C2 (stereo unspecified) the T/C [12] was 100 % of control, the T/C [13] was 103 % of control and the T/C [14] was 115 % of control.
In the case of Cn1nnc(-c2ccccc2)n1, the T/C (dose: 100.0 mg/kg/injection, schedule: Q04DX002 (ip), vehicle: saline with Tween-80) is reported as 107 % of control, the T/C (dose: 200.0 mg/kg/injection, schedule: Q04DX002 (ip), vehicle: saline with Tween-80) is reported as 102 % of control and the T/C (dose: 400.0 mg/kg/injection, schedule: Q04DX002 (ip), vehicle: saline with Tween-80) is reported as 112 % of control.
With CN(C)C(=S)c1cccc(-c2ccccn2)n1 the T/C (dose: 50.0 mg/kg/injection, schedule: Q04DX003 (ip), vehicle: Klucel (hydroxypropylcellulose) (HPC)) was 95 % of control, the T/C [4] was 96 % of control and the T/C [5] was 91 % of control.
In the case of CC([NH-])C(=O)O.[Cu+2].[NH-]C(Cc1cnc[nH]1)C(=O)O (stereo unspecified), the T/C [15] is reported as 97 % of control.
O=C1CCC(=O)N1CN1CCCCC1 was tested, and the T/C [1] was 93 % of control, the T/C [2] was 113 % of control and the T/C [3] was 118 % of control.
With O=C1c2cc3c(cc2C(=O)c2[nH]c(=O)ccc21)CCCC3 the T/C [16] was 100 % of control, the T/C [17] was 88 % of control and the T/C [18] was 101 % of control.
In the case of COC(=O)c1nc(=S)[nH]c(C(=O)OC)c1C(=O)c1cc(Cl)ccc1Cl, the T/C [9] is reported as 96 % of control, the T/C [10] is reported as 101 % of control and the T/C [11] is reported as 100 % of control.
With CCCCCCN(CCCCCC)CC(O)c1cc2c(c3ccccc13)CCCC2 (stereo unspecified) the T/C [16] was 94 % of control, the T/C [17] was 103 % of control and the T/C [18] was 103 % of control.
In the case of CCOC(=O)c1cnc2c(c(Br)cc3c4cc(Br)ccc4[nH]c32)c1Cl, the T/C (dose: 6.25 mg/kg/injection, schedule: Q01DX009 (ip), vehicle: saline) is reported as 112 % of control, the T/C (dose: 12.5 mg/kg/injection, schedule: Q01DX009 (ip), vehicle: saline) is reported as 107 % of control and the T/C [15] is reported as 111 % of control. For the same compound, the T/C [19] was 97 % of control, the T/C [20] was 91 % of control and the T/C [21] was 88 % of control.
In the case of NC(=O)C1CCCN(C2OC(COP(=O)(O)OP(=O)(O)OCC3OC(n4nnc5c(=O)[nH]c(N)nc54)C(O)C3O)C(O)C2O)C1 (stereo unspecified), the T/C [12] is reported as 115 % of control, the T/C [13] is reported as 98 % of control and the T/C [14] is reported as 87 % of control.
With CCOC(=O)C(CC(C)C)NC(=O)c1cnc2ccccc2c1 (stereo unspecified) the T/C [9] was 104 % of control, the T/C [10] was 103 % of control and the T/C [11] was 99 % of control.
For CCCCCC(=O)NC(Cc1ccc(N(CCCl)CCCl)cc1)C(=O)O (stereo unspecified), the T/C (dose: 1.3 mg/kg/injection, schedule: Q03HX008 (ip), vehicle: saline) was 100 % of control, the T/C (dose: 1.32 mg/kg/injection, schedule: Q01DX009 (ip), vehicle: saline) was 109 % of control and the T/C (dose: 2.6 mg/kg/injection, schedule: Q03HX008 (ip), vehicle: saline) was 110 % of control. For the same compound, the T/C (dose: 2.65 mg/kg/injection, schedule: Q01DX009 (ip), vehicle: saline) was 113 % of control, the T/C (dose: 5.3 mg/kg/injection, schedule: Q03HX008 (ip), vehicle: saline) was 120 % of control and the T/C (dose: 21.2 mg/kg/injection, schedule: Q03HX008 (ip), vehicle: saline) was 150 % of control.
In the case of COC(=O)C#CBr, the T/C (dose: 3.13 mg/kg/injection, schedule: Q04DX003 (ip), vehicle: saline) is reported as 100 % of control and the T/C (dose: 6.25 mg/kg/injection, schedule: Q04DX003 (ip), vehicle: saline) is reported as 100 % of control.
Cc1ccc(S(=O)(=O)/N=S(\C)CC(C)Cl)cc1 (stereo unspecified) was tested, and the T/C [22] was 100 % of control, the T/C [23] was 105 % of control and the T/C [24] was 105 % of control.
O=C(CC(O)(C(F)(F)F)C(F)(F)F)c1cccs1 was tested, and the T/C (dose: 50.0 mg/kg/injection, schedule: Q04DX003 (ip), vehicle: saline with Tween-80) was 116 % of control and the T/C (dose: 100.0 mg/kg/injection, schedule: Q04DX003 (ip), vehicle: saline with Tween-80) was 100 % of control.
CC([C@H](c1ccccc1)C1CCC(C(N)=O)(N2CCOCC2)C1)[N+](=O)[O-] (stereo partly specified) was tested, and the T/C (dose: 60.0 mg/kg/injection, schedule: Q01DX005 (ip), vehicle: Klucel (hydroxypropylcellulose) (HPC)) was 99 % of control, the T/C (dose: 120.0 mg/kg/injection, schedule: Q01DX005 (ip), vehicle: Klucel (hydroxypropylcellulose) (HPC)) was 99 % of control and the T/C (dose: 240.0 mg/kg/injection, schedule: Q01DX005 (ip), vehicle: Klucel (hydroxypropylcellulose) (HPC)) was 93 % of control.
In the case of CCOC(=O)C1=C(NC23CC4CC(CC(C4)C2)C3)OCC1=O, the T/C [9] is reported as 107 % of control and the T/C [10] is reported as 110 % of control.
With CCc1ccc(-c2cc(-c3ccc(CC)cc3)cc(-c3ccc(CC)cc3)c2)cc1 the T/C [9] was 100 % of control, the T/C [17] was 94 % of control and the T/C [18] was 91 % of control.
O=Cc1ccc(N=Nc2c(S(=O)(=O)O)cc3cc(S(=O)(=O)O)cc(O)c3c2O)cc1 was tested, and the T/C [6] was 90 % of control, the T/C [7] was 90 % of control and the T/C [8] was 100 % of control.
With CCSc1nc2ccc(N=Cc3ccc(NS(=O)(=O)c4ccccc4)cc3O)cc2s1 the T/C [22] was 116 % of control and the T/C [23] was 103 % of control.
For CC(C)CC1([N+](=O)[O-])CN(C)CC2CCCCN2C1 (stereo unspecified), the T/C (dose: 25.0 mg/kg/injection, schedule: Q04DX002 (ip), vehicle: water) was 102 % of control, the T/C (dose: 50.0 mg/kg/injection, schedule: Q04DX002 (ip), vehicle: water) was 107 % of control and the T/C (dose: 100.0 mg/kg/injection, schedule: Q04DX002 (ip), vehicle: saline) was 102 % of control. For the same compound, the T/C (dose: 100.0 mg/kg/injection, schedule: Q04DX002 (ip), vehicle: water) was 99 % of control.
For COC(=O)C1(CC(=O)c2ccc(OC)cc2)NC(=S)NC(=O)C1C#N (stereo unspecified), the T/C [1] was 100 % of control, the T/C [2] was 98 % of control and the T/C [3] was 86 % of control.
CCCCN(C(=O)N(CC)CC)[Si](C)(C)C was tested, and the T/C [22] was 107 % of control, the T/C [23] was 100 % of control and the T/C [24] was 107 % of control.
O=c1cc[nH]c(=S)[nH]1.[Pd] was tested, and the T/C [15] was 89 % of control, the T/C [19] was 96 % of control and the T/C [20] was 91 % of control. The T/C [21] was 91 % of control.
For CC1CCC2(CC1)CC(=O)N(N)C2=O (stereo unspecified), the T/C [9] was 104 % of control, the T/C [10] was 105 % of control and the T/C [11] was 108 % of control.
In the case of O=C1c2ccccc2C2(O)C3c4ccccc4CCN3CN12 (stereo unspecified), the T/C (dose: 50.0 mg/kg/injection, schedule: Q01DX005 (ip), vehicle: Klucel (hydroxypropylcellulose) (HPC)) is reported as 100 % of control, the T/C (dose: 100.0 mg/kg/injection, schedule: Q01DX005 (ip), vehicle: Klucel (hydroxypropylcellulose) (HPC)) is reported as 101 % of control and the T/C (dose: 200.0 mg/kg/injection, schedule: Q01DX005 (ip), vehicle: Klucel (hydroxypropylcellulose) (HPC)) is reported as 101 % of control.
NC(=O)NN(Cc1ccc2c(c1)OCO2)N=O was tested, and the T/C [22] was 99 % of control, the T/C [23] was 107 % of control and the T/C [24] was 91 % of control.
